According to ChEMBL document CHEMBL1909294, “Translating clinical findings into knowledge in drug safety evaluation--drug induced liver injury prediction system (DILIps)” (PLoS Comput Biol, 2011):

Assays:
Hepatotoxicity [1] = system: Hepatotoxicity;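 for HepSE bilirubinemia: bilirubinemia hepatic side effect score drawn from the DILIps training data, a prediction system for drug-induced liver injury; call rule not given here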;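 for HepSE cholecystitis: Cholecystitis-related hepatic side effect score drawn from the DILIps (drug-induced liver injury prediction) training data set; call rule not given here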;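 for HepSE cholelithiasis: hepatic side effect score for cholelithiasis, drawn from the DILIps training data for predicting drug-induced liver injury; call rule not given here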;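 for HepSE cirrhosis: cirrhosis hepatic side effect score taken from the DILIps (drug-induced liver injury prediction) training set; call rule not given here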;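 for HepSE elevated liver function tests: hepatic side effect score for raised liver function tests, as recorded in the DILIps training set used for predicting drug-induced liver injury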; for HepSE hepatic failure: call rule not given here;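 for HepSE hepatomegaly: hepatic side effect score for hepatomegaly, taken from the training set of the DILIps drug-induced liver injury prediction system; call rule not given here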
Hepatotoxicity [2] = system: Hepatotoxicity; remark: listed apart in the source;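 for HepSE bilirubinemia: bilirubinemia hepatic side effect score drawn from the DILIps training data, a prediction system for drug-induced liver injury; call rule not given here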;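 for HepSE cholecystitis: Cholecystitis-related hepatic side effect score drawn from the DILIps (drug-induced liver injury prediction) training data set; call rule not given here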;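 for HepSE cholelithiasis: hepatic side effect score for cholelithiasis, drawn from the DILIps training data for predicting drug-induced liver injury; call rule not given here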;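 for HepSE cirrhosis: cirrhosis hepatic side effect score taken from the DILIps (drug-induced liver injury prediction) training set; call rule not given here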;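 for HepSE elevated liver function tests: hepatic side effect score for raised liver function tests, as recorded in the DILIps training set used for predicting drug-induced liver injury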; for HepSE hepatic failure: call rule not given here
Hepatotoxicity [3] = system: Hepatotoxicity; remark: listed apart in the source;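 for HepSE bilirubinemia: bilirubinemia hepatic side effect score drawn from the DILIps training data, a prediction system for drug-induced liver injury; call rule not given here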;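 for HepSE cholecystitis: Cholecystitis-related hepatic side effect score drawn from the DILIps (drug-induced liver injury prediction) training data set; call rule not given here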;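 for HepSE cholelithiasis: hepatic side effect score for cholelithiasis, drawn from the DILIps training data for predicting drug-induced liver injury; call rule not given here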;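 for HepSE cirrhosis: cirrhosis hepatic side effect score taken from the DILIps (drug-induced liver injury prediction) training set; call rule not given here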;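 for HepSE elevated liver function tests: hepatic side effect score for raised liver function tests, as recorded in the DILIps training set used for predicting drug-induced liver injury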; for HepSE hepatic failure: call rule not given here
Hepatotoxicity [4] = system: Hepatotoxicity; remark: listed apart in the source;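 for HepSE bilirubinemia: bilirubinemia hepatic side effect score drawn from the DILIps training data, a prediction system for drug-induced liver injury; call rule not given here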;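 for HepSE cholecystitis: Cholecystitis-related hepatic side effect score drawn from the DILIps (drug-induced liver injury prediction) training data set; call rule not given here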;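 for HepSE cholelithiasis: hepatic side effect score for cholelithiasis, drawn from the DILIps training data for predicting drug-induced liver injury; call rule not given here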;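 for HepSE cirrhosis: cirrhosis hepatic side effect score taken from the DILIps (drug-induced liver injury prediction) training set; call rule not given here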;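 for HepSE elevated liver function tests: hepatic side effect score for raised liver function tests, as recorded in the DILIps training set used for predicting drug-induced liver injury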; for HepSE hepatic failure: call rule not given here
Hepatotoxicity [5] = system: Hepatotoxicity; remark: listed apart in the source; for HepSE hepatic failure: call rule not given here
Hepatotoxicity [6] = system: Hepatotoxicity; remark: listed apart in the source; for HepSE hepatic failure: call rule not given here
Hepatotoxicity [7] = system: Hepatotoxicity; remark: listed apart in the source
Hepatotoxicity [8] = system: Hepatotoxicity; remark: listed apart in the source
Hepatotoxicity [9] = system: Hepatotoxicity; remark: listed apart in the source
Hepatotoxicity [10] = system: Hepatotoxicity; remark: listed apart in the source
Hepatotoxicity [11] = system: Hepatotoxicity; remark: listed apart in the source
Hepatotoxicity [12] = system: Hepatotoxicity; remark: listed apart in the source
Hepatotoxicity [13] = system: Hepatotoxicity; remark: listed apart in the source
Hepatotoxicity [14] = system: Hepatotoxicity; remark: listed apart in the source

SMILES	HepSE_bilirubinemia (Hepatotoxicity [1])	HepSE_cholecystitis (Hepatotoxicity [2])	HepSE_cholelithiasis (Hepatotoxicity [3])	HepSE_cirrhosis (Hepatotoxicity [4])	HepSE_elevated liver function tests (Hepatotoxicity [5])	HepSE_hepatic failure (Hepatotoxicity [6])	HepSE_hepatic necrosis (Hepatotoxicity [7])	HepSE_hepatitis (Hepatotoxicity [8])	HepSE_hepatomegaly (Hepatotoxicity [9])	HepSE_jaundice (Hepatotoxicity [10])	HepSE_liver disease (Hepatotoxicity [11])	HepSE_liver fatty (Hepatotoxicity [12])	HepSE_liver function tests abnormal (Hepatotoxicity [13])	HepSE_Combined Scores (Hepatotoxicity [14])	HepSE_elevated liver function tests (Hepatotoxicity [5]; Liver)	HepSE_liver function tests abnormal (Hepatotoxicity [13]; Liver)
CN(C)CCCN1c2ccccc2CCc2ccccc21 [IMIPRAMINE]	0	0	0	0	0	0	0	0	0	1	0	0	0	1		
S=P(N1CC1)(N1CC1)N1CC1 [THIOTEPA]	1	0	0	0	0	0	0	0	0	0	0	0	0	1		
CC(=O)[C@@]1(O)CC[C@H]2[C@@H]3C=C(Cl)C4=CC(=O)[C@@H]5C[C@@H]5[C@]4(C)[C@H]3CC[C@@]21C [CYPROTERONE]	0	0	0	1	0	1	1	1	1	1	0	0	0	6		
Oc1ccc(OCc2ccccc2)cc1 [MONOBENZONE]	0	0	0	0	0	0	0	0	0	0	0	0	0	0		
Cc1cc(C2CCCCC2)n(O)c(=O)c1 [CICLOPIROX]	0	0	0	0	0	0	0	0	0	0	0	0	0	0		
CCC[C@@]1(CCc2ccccc2)CC(O)=C([C@H](CC)c2cccc(NS(=O)(=O)c3ccc(C(F)(F)F)cn3)c2)C(=O)O1	1	0	0	0	0	1	0	1	0	1	0	1	1	6		
Cc1noc(NS(=O)(=O)c2ccc(N)cc2)c1C [SULFISOXAZOLE]	0	0	0	0	0	0	0	1	0	1	0	0	0	2		
CN(C)CCCOc1nn(Cc2ccccc2)c2ccccc12 [BENZYDAMINE]	0	0	0	0	0	0	0	0	0	0	0	0	0	0		
C[C@@H]1CN([C@H]2CC[C@](C#N)(c3ccc(F)cc3)CC2)CC[C@]1(C(=O)O)c1ccccc1 [LEVOCABASTINE]	0	0	0	0	0	0	0	0	0	0	0	0	0	0		
CCN[C@H]1CN(CCCOC)S(=O)(=O)c2sc(S(N)(=O)=O)cc21 [BRINZOLAMIDE]	0	0	0	0	0	0	0	0	0	0	0	0	0	0		
NS(=O)(=O)c1cc(C2(O)NC(=O)c3ccccc32)ccc1Cl (configuration not stated) [CHLORTHALIDONE]	0	0	0	0	0	0	0	0	0	1	0	0	0	1		
CC=CC1=C(C(=O)O)N2C(=O)[C@@H](NC(=O)[C@H](N)c3ccc(O)cc3)[C@H]2SC1 [CEFPROZIL]	0	0	0	0	0	0	0	0	0	1	0	0	0	1		
Cc1c(C)c2c(c(C)c1O)CCC(C)(COc1ccc(CC3SC(=O)NC3=O)cc1)O2 (configuration not stated) [TROGLITAZONE]	0	0	0	0	0	0	0	1	0	1	0	0	1	3		
CC[C@@H](C(N)=O)N1CCCC1=O	0	0	0	0	0	1	0	1	0	0	0	0	0	2		
CCCC1O[C@@H]2C[C@H]3[C@@H]4CCC5=CC(=O)C=C[C@]5(C)[C@H]4[C@@H](O)C[C@]3(C)[C@]2(C(=O)CO)O1 (some centres not stated) [BUDESONIDE]	0	0	0	0	0	0	0	0	0	0	0	0	0	0		
Clc1ccc(CSC(Cn2ccnc2)c2ccc(Cl)cc2Cl)cc1 (configuration not stated) [SULCONAZOLE]	0	0	0	0		0	0	0	0	0	0	0		0	0	0
COC(=O)C1=C(C)NC(C)=C(C(=O)OC)C1c1ccccc1[N+](=O)[O-] [NIFEDIPINE]	0	0	0	0	0	0	0	1	0	1	0	0	0	2		
FC(F)OC(Cl)C(F)(F)F (configuration not stated) [ISOFLURANE]	0	0	0	0	0	1	1	1	0	1	0	0	0	4		
